According to patent US6025358A, “Double prodrugs of potent GP IIb/IIIa antagonists” (G. D. Searle & Co., priority 1999, dated 2000):
Structures can show the parent of a compound that is named as a salt.

test system: platelet aggregation; test: Ex vivo screening of oral GP IIb/IIIa inhibitors: inhibition of collagen-induced platelet aggregation in PRP after oral dosing in beagles; conditions: Canis lupus familiaris, Platelet, beagle dogs, 5 mpk, n = 2, 32 hours post-dosing, collagen agonist, read-out: Percent inhibition of platelet aggregation at 32 hour post-dosing
Protocol: Beagles (8-13 kg, various sources) of either sex are dosed orally with compound in a gelatin capsule. Blood samples are drawn from the cephalic vein using a 23 ga infusion butterfly. Samples for platelet aggregation and drug concentration are taken prior to dosing and 0.5, 1, 2, 3, 5, 7 and 10 hours after dosing and periodically on subsequent days until inhibition of platelet aggregation is less than 30%. Animals are fasted, with ad lib access to water, overnight prior to dosing. For measurement of plasma concentration blood is drawn into a 3 ml tube containing 45 USP units of Na Heparin. Blood is centrifuged at 1700×g for 10 minutes, plasma is aspirated and frozen at -20° C. until analyzed by HPLC. For measurement of platelet aggregation, blood is drawn into 2 2.0 ml tubes containing 0.2 ml of 3.8% Na Citrate. Blood is centrifuged at 250×g for 6 minutes and the platelet rich plasma (PRP) is aspirated. The remaining blood is centrifuged at 1700×g for 10 minutes and platelet poor plasma (PPP) is aspirated. Platelet aggregation is performed in a Bio-Data PAP-4 aggregometer (Bio-Data Corp., Havertown, Pa.) using collagen (100 μg/ml final concentration; Helena Laboratories, Beaumont, Tex.) as the agonist. Briefly, baseline (100% aggregation) is set using PPP; PRP is incubated at 37° C. for one minute without stirring and one minute with stirring, agonist is added and aggregation is allowed to develop for 4 minutes. Percent aggregation post-dosing is compared to percent aggregation pre-dosing to determine percent inhibition.
Percent inhibition of platelet aggregation at 32 hour post-dosing in
beagle dogs (5 mpk, n = 2)

**Q.** For CC(C)OC(=O)CCNC(=O)N[C@H]1CCN(c2ccc(C(N)=NOC(N)=O)cc2)C1=O [5(b), N-[[[(3S)-1-[4-[[[(aminocarbonyl)oxy]amino]iminomethyl]phenyl]-2-oxo-3-pyrrolidinyl]amino]carbonyl]-β-alanine 1-methylethyl ester], which inhibition in vivo at 5 mg/kg is on record?
**A.** 64%

**Q.** NC(=O)ON=C(N)c1ccc(N2CC[C@H](NC(=O)NCCC(=O)OC3CCCCC3)C2=O)cc1 [5(h), N-[[[(3S)-1-[4-[[[(aminocarbonyl)oxy]amino]iminomethyl]phenyl]-2-oxo-3-pyrrolidinyl]amino]carbonyl]-β-alanine cyclohexyl ester] was tested. Which inhibition in vivo at 5 mg/kg did it give?
**A.** 28%

**Q.** How did the inhibition in vivo at 5 mg/kg turn out when COC(=O)CCNC(=O)N[C@H]1CCN(c2ccc(C(N)=NO)cc2)C1=O [Example 1(a), N-[[[(3S)-1-[4-[(hydroxyamino)iminomethyl]phenyl]-2-oxo-3-pyrrolidinyl]amino]carbonyl]-β-alanine methyl ester] was run?
**A.** 85%

**Q.** How did the inhibition in vivo at 5 mg/kg turn out when CCOC(=O)CCNC(=O)N[C@H]1CCN(c2ccc(C(N)=NO)cc2)C1=O [Example 1, N-[[[(3S)-1-[4-[(hydroxyamino)iminomethyl]phenyl]-2-oxo-3-pyrrolidinyl]amino]carbonyl]-β-alanine ethyl ester monohydrochloride] was run?
**A.** 95%

**Q.** COC(=O)CCNC(=O)N[C@H]1CCN(c2ccc(C(=N)NOC(=O)N3CCN(C)CC3)cc2)C1=O [Example 3, N-[[[(3S)-1-[4-[imino[[[(4-methyl-1-piperazinyl)-carbonyl]oxy]amino]-methyl]phenyl]-2-oxo-3-pyrrolidinyl]amino]carbonyl]-β-alanine methyl ester] was tested. Which inhibition in vivo at 5 mg/kg did it give?
**A.** 66%

**Q.** Which inhibition in vivo at 5 mg/kg does the source give for COC(=O)CCNC(=O)N[C@H]1CCN(c2ccc(C(N)=NOC(=O)N(C)C)cc2)C1=O [Example 4, N-[[[(3S)-1-[4-[[[[(dimethylamino)carbonyl]oxy]amino]iminomethyl]phenyl]-2-oxo-3-pyrrolidinyl]amino]carbonyl]-β-alanine methyl ester] here?
**A.** 68%

**Q.** For COC(=O)CCNC(=O)N[C@H]1CCN(c2ccc(C(N)=NOC(N)=O)cc2)C1=O [Example 5, N-[[[(3S)-1-[4-[[[(aminocarbonyl)oxy]amino]iminomethyl]-phenyl]-2-oxo-3-pyrrolidinyl]amino]carbonyl]-β-alanine methyl ester], which inhibition in vivo at 5 mg/kg is on record?
**A.** 89%

**Q.** With CCOC(=O)CCNC(=O)N[C@H]1CCN(c2ccc(C(=N)NC(=O)c3ccccc3)cc2)C1=O [Example 7, N-[[[3(S)-1-[4-[imino[(phenylcarbonyl)amino]methyl]phenyl]-2-oxo-3-pyrrolidinyl]amino]carbonyl]-β-alanine ethyl ester] as the molecule, how does the inhibition in vivo at 5 mg/kg read?
**A.** 53%

**Q.** How did the inhibition in vivo at 5 mg/kg turn out when CCOC(=O)CCNC(=O)N[C@H]1CCN(c2ccc(C(N)=NOC(C)=O)cc2)C1=O [Example 8, N-[[[(3S)-1-[4-[[(acetyloxy)amino]iminomethyl]phenyl]-2-oxo-3-pyrrolidinyl]amino]carbonyl]-β-alanine ethyl ester] was run?
**A.** 57%

**Q.** For CCOC(=O)CCNC(=O)N[C@H]1CCN(c2ccc(C(N)=NOC(=O)OCC)cc2)C1=O [Example 9, N-[[[(3S)-1-[4-[[[(ethoxycarbonyl)oxy]amino]iminomethyl]phenyl]-2-oxo-3-pyrrolidinyl]amino]carbonyl]-β-alanine ethyl ester], which inhibition in vivo at 5 mg/kg is on record?
**A.** 90%

**Q.** Which inhibition in vivo at 5 mg/kg does the source give for CCOC(=O)CCNC(=O)N[C@H]1CCN(c2ccc(C(=N)NOC(=O)OCC(Cl)(Cl)Cl)cc2)C1=O [Example 10, N-[[[(3S)-1-[4-[imino[[[(2,2,2-trichloroethoxy)carbonyl]oxy]amino]methyl]phenyl]-2-oxo-3-pyrrolidinyl]amino]carbonyl]-β-alanine ethyl ester] here?
**A.** 84%

same assay, conditions: beagle dogs, 5 mpk, n = 2, 10 hours post-dosing, collagen agonist

**Q.** How did the “% inhibition of platelet aggregation @ 10 hours” value (shortened to “% inhibition”) turn out when CN(C)CCN(C)C(=O)ONC(=N)c1ccc(N2CC[C@H](NC(=O)NCCC(=O)O)C2=O)cc1.O.O=C(O)C(F)(F)F.O=C(O)C(F)(F)F [6(a), N-[[[(3S)-1-[4-(1-imino-5,8-dimethyl-4-oxo-3-oxa-2,5,8-triazanon-1-yl)phenyl]-2-oxo-3-pyrrolidinyl]amino]carbonyl]-β-alanine bis(trifluoroacetate) monohydrate] was run?
**A.** 61%

**Q.** With NC(=O)ON=C(N)c1ccc(N2CC[C@H](NC(=O)NCCC(=O)O)C2=O)cc1 [6(d), N-[[[(3S)-1-[4-[[[(aminocarbonyl)oxy]amino]iminomethyl]phenyl]-2-oxo-3-pyrrolidinyl]amino]carbonyl]-β-alanine] as the molecule, how does the “% inhibition” value read?
**A.** 15%

**Q.** N=C(N)c1ccc(N2CC[C@H](NC(=O)NCCC(=O)O)C2=O)cc1 [6(e), N-[[[(3S)-1-[4-(Aminoiminomethyl)phenyl]-2-oxo-3-pyrrolidinyl]amino]-carbonyl]-β-alanine trifluoroacetate, reference compound] was tested. Which “% inhibition” value did it give?
**A.** 28%
